# According to US4129721A, “A-40104 antibiotics and process for production thereof” (priority 1977, dated 1978):
# Read-outs that look alike come from different tables or passages of the source.
# Experiments:
# swine dysentery = conditions: W. E. Brown et al., U.S. Pat. No. 4,041,175; cited from earlier work
# [1] = test system: Hemophilus influenzae Dick.; experiment: gradient-plate agar-dilution method; assay type: cell-based; conditions: Haemophilus influenzae
# [2] = test system: Hemophilus influenzae Brun; experiment: gradient-plate agar-dilution method; assay type: cell-based; conditions: Haemophilus influenzae
# [3] = test system: Hemophilus influenzae 260; experiment: gradient-plate agar-dilution method; assay type: cell-based; conditions: Haemophilus influenzae
# Streptococcus pyogenes = experiment: gradient-plate agar-dilution method; assay type: cell-based
# [4] = test system: Hemophilus influenzae 251; experiment: gradient-plate agar-dilution method; assay type: cell-based; conditions: Haemophilus influenzae
# [5] = test system: Neisseria gonorrhea Sand.; experiment: gradient-plate agar-dilution method; assay type: cell-based
# [6] = test system: Streptococcus sp. 9960 (Group D); experiment: gradient-plate agar-dilution method; assay type: cell-based
# [7] = test system: Streptococcus sp. X-66 (Group D); experiment: gradient-plate agar-dilution method; assay type: cell-based
# [8] = test system: Neisseria gonorrhea Lind.; experiment: gradient-plate agar-dilution method; assay type: cell-based
# [9] = test system: Hemophilus influenzae 259; experiment: gradient-plate agar-dilution method; assay type: cell-based; conditions: Haemophilus influenzae
# Mycoplasma hyorhinis = experiment: in vitro broth-dilution studies, mycoplasma; assay type: cell-based
# From the text: (§1) The minimal inhibitory concentrations (MIC's) of A-40104 factor A; 19,20-dihydro-A-40104 factor A; and the tetraacetyl derivative of A-40104A against various mycoplasma species, as determined by in vitro broth-dilution studies, are summarized in Table IX.
# Mycoplasma synoviae = experiment: in vitro broth-dilution studies, mycoplasma; assay type: cell-based
# From the text: as §1
# Mycoplasma gallisepticum = experiment: in vitro broth-dilution studies, mycoplasma; assay type: cell-based
# From the text: as §1
# Mycoplasma hyopneumoniae = experiment: in vitro broth-dilution studies, mycoplasma; assay type: cell-based
# From the text: as §1
# [10] = acute toxicity, intraperitoneal injection in mice; conditions: mouse, in vivo, ip
# From the text: A special advantage of the A-40104 antibiotics is that they are relatively nontoxic.
# [11] = test system: experimental bacterial infections; experiment: experimental bacterial infections in mice (general statement); assay type: in vivo
# Experimental: When two doses of these compounds were administered to mice in illustrative infections, the activity observed was measured as an ED50 value [effective dose in mg./kg. to protect 50 percent of the test animals; see Warren Wick, et al., J. Bacteriol. 81, 233-235 (1961)].
# [12] = test system: Staphylococcus aureus 3055; experiment: experimental bacterial infection in mice; assay type: in vivo; conditions: two doses, read-out: ED50 × 2
# [13] = test system: Pasteurella multocida (bovine); experiment: standard in vitro tests, Pasteurella; assay type: cell-based
# From the text: (§2) Another veterinary aspect of this invention is the activity of the A-40104 antibiotics against Pasteurella species. P. multocida, for example, is a causative agent of respiratory infection in cattle, poultry, and swine. P. hemolytica is a major cause of respiratory disease in cattle. The activity of A-40104 factor A and its dihydro derivative against Pasteurella, as determined by standard in vitro tests, is summarized in Table X.
# Pasteurella hemolytica = experiment: standard in vitro tests, Pasteurella; assay type: cell-based
# From the text: as §2
# [14] = test system: Streptococcus pneumoniae Bi-343; experiment: experimental bacterial infection in mice; assay type: in vivo; conditions: BI343, sc, two doses, challenge 30 × LD50 (ip), read-out: ED50 × 2
# [15] = test system: Streptococcus pneumoniae BI-492; experiment: experimental bacterial infection in mice; assay type: in vivo; conditions: BI492, sc, two doses, challenge 340 × LD50 (ip), read-out: ED50 × 2
# [16] = test system: Streptococcus pyogenes C203; experiment: experimental bacterial infection in mice; assay type: in vivo; conditions: sc, two doses, challenge 1,690 × LD50 (ip), read-out: ED50 × 2
smiles,measurement,setting,value
C=C[C@]1(C)C[C@@H](OC(=O)CO)[C@]2(C)[C@H](C)CC[C@]3(CCC(=O)[C@H]32)[C@@H](C)[C@@H]1O [pleuromutilin],effect in treatment of swine dysentery,swine dysentery,effective in the treatment of swine dysentery
"CC1(C)S[C@@H]2[C@H](NC(=O)[C@H](N)c3ccccc3)C(=O)N2[C@H]1C(=O)O [Ampicillin, reference compound]",MIC,[1],0.5 µg/mL
same,MIC,[2],0.5 µg/mL
same,MIC,[3],70 µg/mL
same,MIC,Streptococcus pyogenes,< 0.01 µg/mL
same,MIC,[4],70 µg/mL
same,MIC,[5],0.07 µg/mL
same,MIC,[6],0.6 µg/mL
same,MIC,[7],0.8 µg/mL
same,MIC,[8],0.5 µg/mL
same,MIC,[9],70 µg/mL
"C=CC1(C)CC(OC(=O)CO[C@@H]2OC[C@@H](OC(C)=O)[C@H](OC(C)=O)[C@H]2OC(C)=O)C2(C)C(C)CCC3(CCC(=O)C32)C(C)C1OC(C)=O (some centres unmarked) [Tetraacetyl A-40104A, tetraacetyl derivative of A-40104 factor A]",minimal inhibitory concentration (MIC),Mycoplasma hyorhinis,25.0
same,minimal inhibitory concentration (MIC),Mycoplasma synoviae,50.0
same,minimal inhibitory concentration (MIC),Mycoplasma gallisepticum,12.5
same,minimal inhibitory concentration (MIC),Mycoplasma hyopneumoniae,12.5
same,LD50,[10],> 300 mg/kg
"CCC1(C)CC(OC(=O)CO[C@@H]2OC[C@@H](O)[C@H](O)[C@H]2O)C2(C)C(C)CCC3(CCC(=O)C32)C(C)C1O (some centres unmarked) [Dihydro-A-40104A, 19,20-dihydro A-40104 factor A]",in vivo antimicrobial activity,[11],have shown in vivo antimicrobial activity
same,ED50,"[12]; Staphylococcus aureus, 3055, po, oral, challenge 500 × LD50 (ip)",27 mg/kg
same,ED50,"[12]; Staphylococcus aureus, 3055, po, oral, challenge 3,400 × LD50 (ip)",28 mg/kg
same,ED50,"[12]; Staphylococcus aureus, 3055, sc, sc, challenge 69.5 × LD50 (ip)",≤ 4.4 mg/kg
same,MIC,[13],6.25 µg/mL
same,MIC,Pasteurella hemolytica,16.5 µg/mL
same,ED50,[14],35 mg/kg
same,minimal inhibitory concentration (MIC),Mycoplasma hyorhinis,0.195
same,minimal inhibitory concentration (MIC),Mycoplasma synoviae,0.195
same,minimal inhibitory concentration (MIC),Mycoplasma gallisepticum,0.195
same,minimal inhibitory concentration (MIC),Mycoplasma hyopneumoniae,0.097
same,ED50,[15],15.2 mg/kg
same,ED50,[16],5.8 mg/kg
